# Assay results from PubChem BioAssay (NCI).
#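 Grown in 96-well plates, cells were treated for 48 hours with each compound at five concentrations. Insufficient inhibition: endpoint recorded as highest concentration tested. TGI: concentration producing complete growth inhibition.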
# Experiments:
# Experiment in all cases: NCI tumour cell line growth inhibition, 48 h
# SF-295 CNS = test system: SF-295 CNS
# RXF 393 renal = test system: RXF 393 renal
# OVCAR-4 ovarian = test system: OVCAR-4 ovarian
# ACHN renal = test system: ACHN renal
# OVCAR-3 ovarian = test system: OVCAR-3 ovarian
# BT-549 breast = test system: BT-549 breast
# SK-MEL-5 melanoma = test system: SK-MEL-5 melanoma
# T-47D breast = test system: T-47D breast
# KM12 colon = test system: KM12 colon
# OVCAR-8 ovarian = test system: OVCAR-8 ovarian
# M14 melanoma = test system: M14 melanoma
# MOLT-4 leukemia = test system: MOLT-4 leukemia
# SF-268 CNS = test system: SF-268 CNS
# MDA-N = test system: MDA-N
# U251 CNS = test system: U251 CNS
# CCRF-CEM leukemia = test system: CCRF-CEM leukemia
# SF-539 CNS = test system: SF-539 CNS
# SNB-19 CNS = test system: SNB-19 CNS
# NCI-H460 lung = test system: NCI-H460 lung
# MDA-MB-231 breast = test system: MDA-MB-231 breast
# MCF7 breast = test system: MCF7 breast
# HCT-116 colon = test system: HCT-116 colon
# UACC-257 melanoma = test system: UACC-257 melanoma
# EKVX NSCLC = test system: EKVX NSCLC
# OVCAR-5 ovarian = test system: OVCAR-5 ovarian
# SW-620 colon = test system: SW-620 colon
# CAKI-1 renal = test system: CAKI-1 renal
# UO-31 renal = test system: UO-31 renal
# COLO 205 colon = test system: COLO 205 colon
# NCI/ADR-RES ovarian = test system: NCI/ADR-RES ovarian
# SK-MEL-28 melanoma = test system: SK-MEL-28 melanoma
# HCC-2998 colon = test system: HCC-2998 colon
# HOP-62 NSCLC = test system: HOP-62 NSCLC
# K-562 leukemia = test system: K-562 leukemia
# HS 578T breast = test system: HS 578T breast
# RPMI-8226 leukemia = test system: RPMI-8226 leukemia
# SK-OV-3 ovarian = test system: SK-OV-3 ovarian
# MALME-3M melanoma = test system: MALME-3M melanoma
# MDA-MB-435 = test system: MDA-MB-435
# HT29 colon = test system: HT29 colon
# NCI-H226 lung = test system: NCI-H226 lung
# 786-0 renal = test system: 786-0 renal
# TK-10 renal = test system: TK-10 renal
# DU-145 prostate = test system: DU-145 prostate
# SK-MEL-2 melanoma = test system: SK-MEL-2 melanoma
# A549 NSCLC = test system: A549 NSCLC
# IGROV1 ovarian = test system: IGROV1 ovarian
# NCI-H23 lung = test system: NCI-H23 lung
# HL-60(TB) leukemia = test system: HL-60(TB) leukemia
# UACC-62 melanoma = test system: UACC-62 melanoma
# PC-3 prostate = test system: PC-3 prostate
# A498 renal = test system: A498 renal
# LOX IMVI melanoma = test system: LOX IMVI melanoma
# HOP-92 NSCLC = test system: HOP-92 NSCLC
# SNB-75 CNS = test system: SNB-75 CNS
# SN12C renal = test system: SN12C renal
# NCI-H522 lung = test system: NCI-H522 lung
# HCT-15 colon = test system: HCT-15 colon
smiles,measurement,setting,value
CC1=NN(c2nc(N)nc(/C(C#N)=C/c3ccc([N+](=O)[O-])o3)n2)C(C)(C)C1,TGI,SF-295 CNS,33.8 µM
same,TGI,RXF 393 renal,3.21 µM
same,TGI,OVCAR-4 ovarian,25.7 µM
same,TGI,ACHN renal,3.49 µM
same,TGI,OVCAR-3 ovarian,11.1 µM
same,TGI,BT-549 breast,9.24 µM
same,TGI,SK-MEL-5 melanoma,17 µM
same,TGI,T-47D breast,7.05 µM
same,TGI,KM12 colon,28.1 µM
same,TGI,OVCAR-8 ovarian,8.91 µM
same,TGI,M14 melanoma,2.75 µM
same,TGI,MOLT-4 leukemia,6.12 µM
same,TGI,SF-268 CNS,16.2 µM
same,TGI,MDA-N,> 100 µM
same,TGI,U251 CNS,11.3 µM
same,TGI,CCRF-CEM leukemia,> 100 µM
same,TGI,SF-539 CNS,12 µM
same,TGI,SNB-19 CNS,29.7 µM
same,TGI,NCI-H460 lung,10.8 µM
same,TGI,MDA-MB-231 breast,3.29 µM
same,TGI,MCF7 breast,3.21 µM
same,TGI,HCT-116 colon,2.94 µM
same,TGI,UACC-257 melanoma,27.2 µM
same,TGI,EKVX NSCLC,9.04 µM
same,TGI,OVCAR-5 ovarian,3.22 µM
same,TGI,SW-620 colon,3.71 µM
same,TGI,CAKI-1 renal,3.81 µM
same,TGI,UO-31 renal,31.8 µM
same,TGI,COLO 205 colon,3.02 µM
same,TGI,NCI/ADR-RES ovarian,> 49.9 µM
same,TGI,SK-MEL-28 melanoma,19.1 µM
same,TGI,HCC-2998 colon,39.4 µM
same,TGI,HOP-62 NSCLC,31.3 µM
same,TGI,K-562 leukemia,1.13 µM
same,TGI,HS 578T breast,71.4 µM
same,TGI,RPMI-8226 leukemia,> 22.8 µM
same,TGI,SK-OV-3 ovarian,> 52.3 µM
same,TGI,MALME-3M melanoma,4.23 µM
same,TGI,MDA-MB-435,6.38 µM
same,TGI,HT29 colon,4.37 µM
same,TGI,NCI-H226 lung,6.9 µM
same,TGI,786-0 renal,2.99 µM
same,TGI,TK-10 renal,4.52 µM
same,TGI,DU-145 prostate,17 µM
same,TGI,SK-MEL-2 melanoma,16.7 µM
same,TGI,A549 NSCLC,29.8 µM
same,TGI,IGROV1 ovarian,3.82 µM
same,TGI,NCI-H23 lung,10.8 µM
same,TGI,HL-60(TB) leukemia,6.32 µM
same,TGI,UACC-62 melanoma,5.31 µM
same,TGI,PC-3 prostate,21.5 µM
same,TGI,A498 renal,32.6 µM
same,TGI,LOX IMVI melanoma,3.07 µM
same,TGI,HOP-92 NSCLC,3.4 µM
same,TGI,SNB-75 CNS,10.1 µM
Nc1nc(N)c(C2=CCN(Cc3ccccc3)CC2)c(=O)[nH]1,TGI,SF-295 CNS,> 100 µM
same,TGI,RXF 393 renal,> 100 µM
same,TGI,OVCAR-4 ovarian,> 100 µM
same,TGI,ACHN renal,> 100 µM
same,TGI,OVCAR-3 ovarian,> 100 µM
same,TGI,BT-549 breast,> 100 µM
same,TGI,SK-MEL-5 melanoma,> 100 µM
same,TGI,T-47D breast,> 100 µM
same,TGI,KM12 colon,> 100 µM
same,TGI,OVCAR-8 ovarian,> 100 µM
same,TGI,M14 melanoma,> 100 µM
same,TGI,MOLT-4 leukemia,> 100 µM
same,TGI,SF-268 CNS,> 100 µM
same,TGI,MDA-N,> 100 µM
same,TGI,U251 CNS,> 100 µM
same,TGI,CCRF-CEM leukemia,> 100 µM
same,TGI,SF-539 CNS,> 100 µM
same,TGI,SNB-19 CNS,> 100 µM
same,TGI,NCI-H460 lung,> 100 µM
same,TGI,MDA-MB-231 breast,> 100 µM
same,TGI,MCF7 breast,> 100 µM
same,TGI,HCT-116 colon,> 100 µM
same,TGI,UACC-257 melanoma,> 100 µM
same,TGI,EKVX NSCLC,> 100 µM
same,TGI,OVCAR-5 ovarian,> 100 µM
same,TGI,SW-620 colon,> 100 µM
same,TGI,CAKI-1 renal,> 100 µM
same,TGI,UO-31 renal,> 100 µM
same,TGI,COLO 205 colon,> 100 µM
same,TGI,NCI/ADR-RES ovarian,> 100 µM
same,TGI,SK-MEL-28 melanoma,> 100 µM
same,TGI,SN12C renal,> 100 µM
same,TGI,HOP-62 NSCLC,> 100 µM
same,TGI,K-562 leukemia,> 100 µM
same,TGI,HS 578T breast,> 100 µM
same,TGI,NCI-H522 lung,> 100 µM
same,TGI,RPMI-8226 leukemia,> 100 µM
same,TGI,SK-OV-3 ovarian,> 100 µM
same,TGI,MALME-3M melanoma,> 100 µM
same,TGI,MDA-MB-435,> 100 µM
same,TGI,HT29 colon,> 100 µM
same,TGI,NCI-H226 lung,> 100 µM
same,TGI,786-0 renal,> 100 µM
same,TGI,DU-145 prostate,> 100 µM
same,TGI,SK-MEL-2 melanoma,> 100 µM
same,TGI,A549 NSCLC,> 100 µM
same,TGI,IGROV1 ovarian,> 100 µM
same,TGI,NCI-H23 lung,> 100 µM
same,TGI,HL-60(TB) leukemia,> 100 µM
same,TGI,UACC-62 melanoma,> 100 µM
same,TGI,PC-3 prostate,> 100 µM
same,TGI,A498 renal,> 100 µM
same,TGI,HOP-92 NSCLC,> 100 µM
same,TGI,SNB-75 CNS,> 100 µM
same,TGI,HCT-15 colon,> 100 µM
